{"source": "patent US7183075B2", "about": "“Purified and isolated potassium-chloride cotransporter nucleic acids and polypeptides and therapeutic and screening methods using same” (Vanderbilt University, priority 2000, dated 2007)", "biological_target": "T1, mKCC4 (Mus musculus, UniProt Q9WVL3)", "T1 construct": "a full-length mKCC4 cDNA was used as a standard in the Xenopus expression vector pGEMHE; expressed in transfected cells; host or cells: Xenopus laevis oocytes injected with cRNA (pGEMHE, T7 transcript)", "T1 sequence (Q9WVL3 1-1083 L71X/L155X/L467X/L586X/L639X/L1023X)": "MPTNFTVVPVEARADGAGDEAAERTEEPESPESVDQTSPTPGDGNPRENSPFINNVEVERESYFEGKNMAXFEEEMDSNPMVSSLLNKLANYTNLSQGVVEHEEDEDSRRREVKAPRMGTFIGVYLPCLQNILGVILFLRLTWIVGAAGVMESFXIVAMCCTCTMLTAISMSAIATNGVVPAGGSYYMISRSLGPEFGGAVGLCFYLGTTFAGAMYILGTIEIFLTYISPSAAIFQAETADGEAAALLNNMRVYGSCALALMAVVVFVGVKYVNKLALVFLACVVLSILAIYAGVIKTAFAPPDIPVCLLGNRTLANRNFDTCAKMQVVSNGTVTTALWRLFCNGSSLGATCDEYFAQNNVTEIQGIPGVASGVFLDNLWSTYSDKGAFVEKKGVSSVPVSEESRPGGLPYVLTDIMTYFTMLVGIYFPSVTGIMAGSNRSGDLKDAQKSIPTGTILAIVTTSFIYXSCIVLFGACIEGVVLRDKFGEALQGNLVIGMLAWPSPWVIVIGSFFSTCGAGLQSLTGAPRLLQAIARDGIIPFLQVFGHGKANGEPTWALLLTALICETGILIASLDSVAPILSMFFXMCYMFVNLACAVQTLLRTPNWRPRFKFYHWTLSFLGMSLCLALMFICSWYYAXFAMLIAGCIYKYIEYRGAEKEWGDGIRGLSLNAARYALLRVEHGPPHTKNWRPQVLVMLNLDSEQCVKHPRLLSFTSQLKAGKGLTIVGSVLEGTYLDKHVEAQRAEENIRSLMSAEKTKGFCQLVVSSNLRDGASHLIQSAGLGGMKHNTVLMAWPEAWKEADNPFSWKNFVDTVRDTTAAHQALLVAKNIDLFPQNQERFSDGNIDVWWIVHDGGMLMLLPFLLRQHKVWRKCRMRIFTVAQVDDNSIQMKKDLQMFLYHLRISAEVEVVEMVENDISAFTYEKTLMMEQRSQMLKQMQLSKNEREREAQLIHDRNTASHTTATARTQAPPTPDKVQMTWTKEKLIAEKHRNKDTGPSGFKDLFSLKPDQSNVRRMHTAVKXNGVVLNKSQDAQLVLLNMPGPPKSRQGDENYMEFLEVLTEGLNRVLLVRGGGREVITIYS", "experiment": "86Rb+ uptake (K+-Cl- cotransport) in Xenopus oocytes injected with mKCC4 cRNA", "assay_type": "cell-based", "conditions": "for relative KCC4 activity: 2 mM diuretic; for effect on activation of KCC4 by cell swelling: calyculin A 100 nM, okadaic acid 1 nM, cypermethrin 100 pM; for KCC4 function remaining: 100 μM DIDS", "procedure": "Oocytes were surgically collected from anesthetized female Xenopus adults under 0.17% tricaine and incubated for 1 hour with vigorous shaking in frog Ringer ND96 (96 mM sodium chloride, 2 mM potassium chloride, 1.8 mM calcium chloride, 1.0 mM magnesium chloride, and 5 mM Hepes/Tris, pH 7.4) in the presence of 2 mg/ml collagenase B. Oocytes were then washed four times in ND96, manually defolliculated, and incubated overnight in ND96 at 18° C. On the next day, defolliculated stage V–VI oocytes were injected with 50 nl of water or a solution containing cRNA at a concentration of 0.25–0.5 μg/μl (25 ng/oocyte). Oocytes were incubated at 17–18° C. in ND96 (96 mM sodium chloride, 2 mM potassium chloride, 1.8 mM calcium chloride, 1.0 mM magnesium chloride, and 5 mM Hepes/Tris, pH 7.4), supplemented with 2.5 mM sodium pyruvate and 5 mg/100 ml gentamicin, for 3–4 days. The incubation medium was changed every 24 hours. On the day of the experiment, oocytes were switched to Cl^−-free ND96 (96 mM Na^+ Na^+ isethionate, 2 mM K^+ gluconate, 6 mM Ca^2+ gluconate, 1 mM Mg^2+ gluconate, 5 mM Hepes, 2.5 mM sodium pyruvate, 5 mg/100 ml gentamicin, pH 7.4) for 2 hours prior to the uptake assay.\nFor functional expression and in vitro translation, a full-length mKCC4 cDNA was used as a standard in the Xenopus expression vector pGEMHE (Liman et al. (1992) Neuron 9:861–871). The resulting construct contains nucleotides 55–3812 of mKCC4 (SEQ ID NO:13). For functional comparison with mKCC4, a full-length rabbit KCC1 cDNA was subcloned into pGEMHE. […] […] Transcription product integrity was confirmed on agarose gels, and concentration was determined by absorbance reading at 260 nm (DU 640 available from Beckman of Fullerton, Calif.).\nK^+—Cl^− cotransport was assessed by measuring tracer ^86Rb^+ uptake (NEN® Life Science Products of Boston, Mass.) in experimental groups of at least 15 oocytes. […] All uptake solutions also contained 1.8 mM CaCl2, 1 mM MgCl2, 5 mM Hepes, pH 7.4, and were supplemented with 1 mM ouabain and […] ^86Rb^+. Isotonic conditions were generated by supplementing the same solutions with 3.5 g/100 ml sucrose to reach isosmolar conditions for oocytes (˜210 mOsm/kg). Ouabain was added to prevent ^86Rb^+ uptake via the Na^+—K^+-ATPase. The absence of extracellular Na^+ and the hypotonicity of the uptake medium prevented ^86Rb^+ uptake via the endogenous Na^+—K^+-2Cl^− cotransporter that is present in oocytes (Gamba et al. (1994) J Biol Chem 269:17713–17722).\nAll uptake assays were performed at 32° C. At the end of the uptake period, oocytes were washed five times in ice-cold uptake solution without isotope to remove extracellular fluid tracer. Oocytes were dissolved in 10% SDS, and tracer activity was determined for each oocyte by β-scintillation counting.\nTo determine the ion transport kinetics of KCC4 and KCC1, ^86Rb^+ uptake experiments were performed in variable concentrations of K^+ and Cl^−. […]", "key": {"[1]": {"conditions": "KCC4, counterion fixed at 50 mM, hypotonic"}, "[2]": {"conditions": "KCC4, counterion fixed at 50 mM, hypotonic, read-out: calculated apparent Km for extracellular ion concentration"}, "[3]": {"conditions": "2 mM extracellular K+, hypotonic"}, "[4]": {"conditions": "50 mM extracellular K+, hypotonic"}}, "note": "Where two headings read alike, the source gives them in different places."}
{"compound": "[K+]", "note": "[Potassium]", "values": [{"measurement": "Hill coefficient", "setting": "KCC4", "result": "1.08±0.2"}, {"measurement": "calculated apparent Vmax for extracellular ion concentration", "setting": "[1]", "result": "32,370±2,115 pmol×oocyte^−1×hour^−1"}, {"measurement": "Km", "setting": "[2]", "result": "17.5 ± 2.7", "unit": "mM"}, {"measurement": "Km", "setting": "KCC4, read-out: Potassium Km", "result": 17.5, "unit": "mM"}]}
{"compound": "HgCl2 [Hg—Cl2]", "values": [{"measurement": "response of KCC4 to mercury", "setting": "50 μM HgCl2, hypotonic", "result": "sensitive"}]}
{"compound": "CCCCNc1cc(C(=O)O)cc(S(N)(=O)=O)c1Oc1ccccc1", "note": "[bumetanide]", "values": [{"measurement": "relative KCC4 activity", "setting": "[3]", "result": "90±4", "unit": "%"}, {"measurement": "relative KCC4 activity", "setting": "[4]", "result": "17±4", "unit": "%"}, {"measurement": "IC50", "setting": "KCC4, 10 mM extracellular K+, read-out: apparent half-maximal inhibition (K=0.5) of Cl−-dependent 86Rb+ uptake", "result": "~900", "unit": "µM"}]}
{"compound": "C=C1[C@@H](O)[C@@H]2O[C@]3(CC[C@H](/C=C/[C@@H](C)[C@@H]4CC(C)=C[C@@]5(O[C@H](C[C@@](C)(O)C(=O)O)CC[C@H]5O)O4)O3)CC[C@H]2O[C@@H]1[C@@H](O)C[C@H](C)[C@H]1O[C@@]2(CCCCO2)CC[C@H]1C", "note": "[okadaic acid]", "values": [{"measurement": "effect on activation of KCC4 by cell swelling", "setting": "hypotonic", "result": "neither okadaic acid, nor cypermethrin prevented this activation"}]}
{"compound": "COC[C@@H]([C@H](O)[C@H](O)C(=O)NCC[C@H](C)c1nc(/C=C/C[C@@H]2O[C@]3(C[C@@H](O)[C@@H]2C)O[C@H]([C@H](C[C@H](O)[C@H](C)[C@H](O)[C@H](C)/C=C(C)/C(C)=C/C=C/C(C)=C\\C#N)OC)[C@H](OP(=O)(O)O)C3(C)C)co1)N(C)C", "note": "[calyculin A]", "values": [{"measurement": "effect on activation of KCC4 by cell swelling", "setting": "hypotonic", "result": "completely prevents the activation"}]}
{"compound": "CCN1C(=O)C=CC1=O", "note": "[NEM, N-ethylmaleimide]", "values": [{"measurement": "reduction of KCC4-induced 86Rb+ uptake", "setting": "1 mM NEM, hypotonic", "result": 68, "unit": "%"}, {"measurement": "fold activation of KCC4", "setting": "1 mM NEM, isotonic", "result": 5, "unit": "fold"}, {"measurement": "86Rb+ uptake in NEM-treated group", "setting": "KCC4, 1 mM NEM, isotonic", "result": "1062±70", "unit": "pmol×oocyte^−1×hour^−1"}]}
{"compound": "CC1(C)C(C=C(Cl)Cl)C1C(=O)OC(C#N)c1cccc(Oc2ccccc2)c1", "note": "(stereo not drawn) [cypermethrin]", "values": [{"measurement": "effect on activation of KCC4 by cell swelling", "setting": "hypotonic", "result": "neither okadaic acid, nor cypermethrin prevented this activation"}]}
{"compound": "O=S(=O)(O)c1cc(N=C=S)ccc1C=Cc1ccc(N=C=S)cc1S(=O)(=O)O", "note": "[DIDS]", "values": [{"measurement": "KCC4 function remaining", "setting": "[3]", "result": "65±10", "unit": "%"}, {"measurement": "KCC4 function remaining", "setting": "[4]", "result": "13±4", "unit": "%"}]}
{"compound": "Cl", "note": "[Chloride]", "values": [{"measurement": "Hill coefficient", "setting": "KCC4", "result": "1.06±0.3"}, {"measurement": "calculated apparent Vmax for extracellular ion concentration", "setting": "[1]", "result": "41,440±4,174 pmol×oocyte^−1×hour^−1"}, {"measurement": "Km", "setting": "[2]", "result": "16.1 ± 4.2", "unit": "mM"}, {"measurement": "Km", "setting": "KCC4, read-out: Chloride Km", "result": 15.3, "unit": "mM"}]}
{"compound": "NS(=O)(=O)c1cc2c(cc1Cl)NC(C(Cl)Cl)NS2(=O)=O", "note": "(stereo not drawn) [trichlormethiazide]", "values": [{"measurement": "relative KCC4 activity", "setting": "[3]", "result": "79±3", "unit": "%"}, {"measurement": "relative KCC4 activity", "setting": "[4]", "result": "57±9", "unit": "%"}]}
{"compound": "[Ba+2].[Cl-].[Cl-]", "note": "[BaCl2]", "values": [{"measurement": "KCC4-induced influx, % of uptake in control oocytes", "setting": "10 mM BaCl2 in hypotonic uptake medium", "result": "58±4.3", "unit": "%"}]}
{"compound": "CCCCC1(C2CCCC2)Cc2cc(OCC(=O)O)c(Cl)c(Cl)c2C1=O", "note": "(stereo not drawn) [DIOA]", "values": [{"measurement": "effect on KCC4-induced 86Rb+ uptake", "setting": "100 μM DIOA, hypotonic", "result": "inhibition"}]}
